Several values for one entry are separate records, joined by “and”; a condition that tells them apart may be missing. Equal values may be shown once. Read-outs that look alike come from different tables or passages of the source. Marks after values point to notes of the source that are not given here.
Legend:
plasma VLDL particles [1] = settings: day 35
[2] = test system: apolipoprotein B (apoB) mRNA; experiment: Northern blot of liver mRNA: apoB; format: in vivo, White Leghorn hens; settings: normalized by 18S rRNA; day 35
Source text: Endocrinol. […] Endocrinol.

[3] = Liver weight of statin-treated laying hens; settings: day 35
laying hens [4] = experiment: Yolk cholesterol contents of eggs from statin-treated laying hens; format: in vivo, White Leghorn hens
Procedure: Agric. […] Hens were treated as described in Example 1. […] The eggs were hard-cooked, and the yolks were separated, weighed, and crumbled. […] Agric. […] Egg homogenate filtrates were analyzed for cholesterol as described in Rudel, L. L. and Morris, M. D., J. Lipid Res. 14:364-366 (1973).

laying hens [5] = settings: 0.03% or 0.06% of diet; day 35
laying hens [6] = experiment: Egg production, egg weights and yolk weights of statin-treated laying hens; format: in vivo, White Leghorn hens
Procedure: Hens were treated as described in Example 1. Egg yolk was weighed as outlined in Example 2.

[7] = test system: microsomal triglyceride transport protein (MTP) large subunit mRNA; settings: normalized by 18S rRNA; day 35
plasma VLDL particles [8] = settings: day 35; remark: listed apart in the source
laying hens [9] = settings: 0.03% or 0.06% of diet; day 35; remark: listed apart in the source
laying hens [10] = experiment: Liver cholesterol content; settings: day 35
[11] = 0.06% of diet, week 5 (maximal reduction for simvastatin, lovastatin)
[12] = 0.03% of diet, Overall (weeks 1-5)
[13] = 0.06% of diet, Overall (weeks 1-5)

Structure (SMILES): CC[C@H](C)C(=O)O[C@H]1C[C@@H](C)C=C2C=C[C@H](C)[C@H](CC[C@@H]3C[C@@H](O)CC(=O)O3)[C@H]21 [Lovastatin]
- Plasma VLDL particle Diameter nm (plasma VLDL particles [1]; 0.03% of diet): 35.5 ± 0.1^a,b nm
- Plasma VLDL particle Diameter nm (plasma VLDL particles [1]; 0.06% of diet): 34.8 ± 0.1^a,b nm
- hepatic apoB mRNA, linear contrasts (P≦0.05) [2]: control>lovastatin
- Liver Weight g ([3]; 0.03% of diet): 31.4 ± 1.4^b g
- Liver Weight g/100 g BW ([3]; 0.03% of diet): 1.81 ± 0.09^a,b g/100 g BW
- Liver Weight g ([3]; 0.06% of diet): 28.8 ± 0.9^b,c g
- Liver Weight g/100 g BW ([3]; 0.06% of diet): 1.76 ± 0.05^b g/100 g BW
- Yolk cholesterol content, mg cholesterol/g yolk (laying hens [4]; 0.03% of diet, Week 0): 11.0 ± 0.2^a mg cholesterol/g yolk
- Yolk cholesterol content, mg cholesterol/yolk (laying hens [4]; 0.03% of diet, Week 0): 195.7 ± 6.8^a mg cholesterol/yolk
- Yolk cholesterol content, mg cholesterol/g yolk (laying hens [4]; 0.03% of diet, Week 1): 10.7 ± 0.2^b mg cholesterol/g yolk
- Yolk cholesterol content, mg cholesterol/yolk (laying hens [4]; 0.03% of diet, Week 1): 192.2 ± 6.5^a mg cholesterol/yolk
- Yolk cholesterol content, mg cholesterol/g yolk (laying hens [4]; 0.03% of diet, Week 2): 11.1 ± 0.2^a,b mg cholesterol/g yolk
- Yolk cholesterol content, mg cholesterol/yolk (laying hens [4]; 0.03% of diet, Week 2): 193.8 ± 6.6^a mg cholesterol/yolk
- Yolk cholesterol content, mg cholesterol/g yolk (laying hens [4]; 0.03% of diet, Week 3): 10.8 ± 0.2^b mg cholesterol/g yolk
- Yolk cholesterol content, mg cholesterol/yolk (laying hens [4]; 0.03% of diet, Week 3): 192.3 ± 5.1^a mg cholesterol/yolk
- Yolk cholesterol content, mg cholesterol/g yolk (laying hens [4]; 0.03% of diet, Week 4): 10.9 ± 0.2^a,b mg cholesterol/g yolk
- Yolk cholesterol content, mg cholesterol/yolk (laying hens [4]; 0.03% of diet, Week 4): 193.9 ± 4.2^a mg cholesterol/yolk
- Yolk cholesterol content, mg cholesterol/g yolk (laying hens [4]; 0.03% of diet, Week 5): 10.8 ± 0.1^b mg cholesterol/g yolk
- Yolk cholesterol content, mg cholesterol/yolk (laying hens [4]; 0.03% of diet, Week 5): 193.6 ± 4.0^a,b mg cholesterol/yolk
- Yolk cholesterol content, mg cholesterol/g yolk (laying hens [4]; 0.06% of diet, Week 0): 10.9 ± 0.1^a mg cholesterol/g yolk
- Yolk cholesterol content, mg cholesterol/yolk (laying hens [4]; 0.06% of diet, Week 0): 197.8 ± 4.3^a mg cholesterol/yolk
- Yolk cholesterol content, mg cholesterol/g yolk (laying hens [4]; 0.06% of diet, Week 1): 10.7 ± 0.1^b mg cholesterol/g yolk
- Yolk cholesterol content, mg cholesterol/yolk (laying hens [4]; 0.06% of diet, Week 1): 185.5 ± 8.4^a,b mg cholesterol/yolk
- Yolk cholesterol content, mg cholesterol/g yolk (laying hens [4]; 0.06% of diet, Week 2): 10.8 ± 0.1^b,c mg cholesterol/g yolk
- Yolk cholesterol content, mg cholesterol/g yolk (laying hens [4]; 0.06% of diet, Week 3): 10.5 ± 0.1^b,c mg cholesterol/g yolk
- Yolk cholesterol content, mg cholesterol/yolk (laying hens [4]; 0.06% of diet, Week 3): 184.6 ± 5.1^a,b mg cholesterol/yolk
- Yolk cholesterol content, mg cholesterol/g yolk (laying hens [4]; 0.06% of diet, Week 4): 10.9 ± 0.2^a,b mg cholesterol/g yolk
- Yolk cholesterol content, mg cholesterol/yolk (laying hens [4]; 0.06% of diet, Week 4): 187.1 ± 7.2^a,b mg cholesterol/yolk
- Yolk cholesterol content, mg cholesterol/g yolk (laying hens [4]; 0.06% of diet, Week 5): 10.8 mg cholesterol/g yolk and 10.8 ± 0.1^b mg cholesterol/g yolk
- Yolk cholesterol content, mg cholesterol/yolk (laying hens [4]; 0.06% of diet, Week 5): 186.9 mg cholesterol/yolk and 186.9 ± 4.3^a,b mg cholesterol/yolk
- yolk cholesterol reduction from control on a per yolk (egg) basis (laying hens [4]; [11]): 7%
- yolk cholesterol reduction from control per g of yolk (mg/g basis) (laying hens [4]; [11]): 7%
- effect on plasma total cholesterol (plasma lipid variables) (laying hens [5]): did not significantly affect
- Egg weight, g (laying hens [6]; [12]): 65.0 ± 1.4^a (155) g
- Hen-day egg production, % (laying hens [6]; [12]): 88.6 ± 2.4^a (155) %
- Yolk weight, g (laying hens [6]; [12]): 17.7 ± 0.2^a (25) g
- Egg weight, g (laying hens [6]; 0.03% of diet, Week 1): 64.9 ± 0.7^a g
- Hen-day egg production, % (laying hens [6]; 0.03% of diet, Week 1): 91.4 ± 1.2^a %
- Yolk weight, g (laying hens [6]; 0.03% of diet, Week 1): 17.9 ± 0.7^a g
- Egg weight, g (laying hens [6]; 0.03% of diet, Week 2): 64.3 ± 0.8^a,b g
- Hen-day egg production, % (laying hens [6]; 0.03% of diet, Week 2): 88.6 ± 1.0^a %
- Yolk weight, g (laying hens [6]; 0.03% of diet, Week 2): 17.4 ± 0.8^a g
- Egg weight, g (laying hens [6]; 0.03% of diet, Week 3): 65.1 ± 0.7^a g
- Hen-day egg production, % (laying hens [6]; 0.03% of diet, Week 3): 85.7 ± 1.0^a %
- Yolk weight, g (laying hens [6]; 0.03% of diet, Week 3): 17.8 ± 0.5^a g
- Egg weight, g (laying hens [6]; 0.03% of diet, Week 4): 65.8 ± 0.6^a g
- Hen-day egg production, % (laying hens [6]; 0.03% of diet, Week 4): 88.6 ± 1.8^a %
- Yolk weight, g (laying hens [6]; 0.03% of diet, Week 4): 17.8 ± 0.4^a g
- Egg weight, g (laying hens [6]; 0.03% of diet, Week 5): 64.7 ± 0.7^a g
- Hen-day egg production, % (laying hens [6]; 0.03% of diet, Week 5): 88.6 ± 1.0^a %
- Yolk weight, g (laying hens [6]; 0.03% of diet, Week 5): 17.8 ± 0.5^a g
- effect on production variables (egg production, egg weight, yolk weight) (laying hens [6]; 0.03% or 0.06% of diet, P>0.05): did not affect
- Egg weight, g (laying hens [6]; [13]): 63.8 ± 1.8^a (155) g
- Hen-day egg production, % (laying hens [6]; [13]): 88.6 ± 2.9^a (155) %
- Yolk weight, g (laying hens [6]; [13]): 17.4 ± 0.3^a (25) g
- Egg weight, g (laying hens [6]; 0.06% of diet, Week 1): 62.6 ± 1.9^a g
- Hen-day egg production, % (laying hens [6]; 0.06% of diet, Week 1): 88.6 ± 1.0^a,b %
- Yolk weight, g (laying hens [6]; 0.06% of diet, Week 1): 17.4 ± 1.0^a g
- Egg weight, g (laying hens [6]; 0.06% of diet, Week 2): 64.0 ± 0.7^a,b g
- Hen-day egg production, % (laying hens [6]; 0.06% of diet, Week 2): 85.7 ± 1.5^a,b %
- Yolk weight, g (laying hens [6]; 0.06% of diet, Week 2): 17.3 ± 0.7^a g
- Egg weight, g (laying hens [6]; 0.06% of diet, Week 3): 65.3 ± 1.1^a g
- Hen-day egg production, % (laying hens [6]; 0.06% of diet, Week 3): 88.6 ± 1.0^a %
- Yolk weight, g (laying hens [6]; 0.06% of diet, Week 3): 17.7 ± 0.6^a g
- Egg weight, g (laying hens [6]; 0.06% of diet, Week 4): 63.3 ± 0.8^b,c g
- Hen-day egg production, % (laying hens [6]; 0.06% of diet, Week 4): 88.6 ± 1.8^a %
- Yolk weight, g (laying hens [6]; 0.06% of diet, Week 4): 17.2 ± 0.9^a,b g
- Egg weight, g (laying hens [6]; 0.06% of diet, Week 5): 62.9 ± 0.8^a,b g
- Hen-day egg production, % (laying hens [6]; 0.06% of diet, Week 5): 91.4 ± 1.2^a %
- Yolk weight, g (laying hens [6]; 0.06% of diet, Week 5): 17.3 ± 0.7^a g
- hepatic MTP large subunit mRNA, linear contrasts (P≦0.05) [7]: lovastatin>atorvastatin
- Plasma VLDL composition: EC (esterified cholesterol) (plasma VLDL particles [8]; 0.03% of diet): 0.06 ± 0.01^a,b %
- Plasma VLDL composition: PC (phosphatidylcholine) (plasma VLDL particles [8]; 0.03% of diet): 11.99 ± 0.18^b %
- Plasma VLDL composition: PE (phosphatidylethanolamine) (plasma VLDL particles [8]; 0.03% of diet): 3.76 ± 0.33^a %
- Plasma VLDL composition: Protein (plasma VLDL particles [8]; 0.03% of diet): 17.37 ± 0.70^a %
- Plasma VLDL composition: SM (sphingomyelin) (plasma VLDL particles [8]; 0.03% of diet): 1.08 ± 0.31^a %
- Plasma VLDL composition: TG (triglyceride) (plasma VLDL particles [8]; 0.03% of diet): 62.78 ± 1.01^a %
- Plasma VLDL composition: UC (unesterified cholesterol) (plasma VLDL particles [8]; 0.03% of diet): 2.94 ± 0.11^a %
- Plasma VLDL composition: EC (esterified cholesterol) (plasma VLDL particles [8]; 0.06% of diet): 0.08 ± 0.02^a,b %
- Plasma VLDL composition: PC (phosphatidylcholine) (plasma VLDL particles [8]; 0.06% of diet): 12.07 ± 0.82^b %
- Plasma VLDL composition: PE (phosphatidylethanolamine) (plasma VLDL particles [8]; 0.06% of diet): 3.46 ± 0.93^a %
- Plasma VLDL composition: Protein (plasma VLDL particles [8]; 0.06% of diet): 19.96 ± 1.32^a %
- Plasma VLDL composition: SM (sphingomyelin) (plasma VLDL particles [8]; 0.06% of diet): 0.66 ± 0.23^a %
- Plasma VLDL composition: TG (triglyceride) (plasma VLDL particles [8]; 0.06% of diet): 60.74 ± 1.22^a %
- Plasma VLDL composition: UC (unesterified cholesterol) (plasma VLDL particles [8]; 0.06% of diet): 3.03 ± 0.34^a %
- effect on plasma triglycerides (plasma lipid variables) (laying hens [9]): did not significantly affect
- Liver Cholesterol mg/g liver (laying hens [10]; 0.03% of diet): 3.0 ± 0.05^b,c mg/g liver
- Liver Cholesterol mg/liver (laying hens [10]; 0.03% of diet): 95.7 ± 3.3^a mg/liver
- Liver Cholesterol mg/g liver (laying hens [10]; 0.06% of diet): 3.1 ± 0.07^b mg/g liver
- Liver Cholesterol mg/liver (laying hens [10]; 0.06% of diet): 90.2 ± 3.6^a mg/liver

From US20010006697A1, “Composition and method for producing low cholesterol eggs” (priority 1997, published 2001)
